Data from patent US10375956B2, “Herbicidally active 2-(substituted-phenyl)-cyclopentane-1,3-dione compounds and derivatives thereof” (Syngenta Limited, priority 2013, dated 2019).

Key:
Format in all cases: in vivo
Lolium perenne (LOLPE) = assay: Test 1 glasshouse assay, post-emergence herbicidal activity; conditions: 312 h, post-emergence (Example 1B Table 2), after 13 days, read-out: Percentage phytotoxicity LOLPE
Experimental: (§1) Seeds of a variety of test species are sown in standard soil in pots. After cultivation for one day (pre-emergence) or after 8 days cultivation (post-emergence) under controlled conditions in a glasshouse (at 24/16° C., day/night; 14 hours light; 65% humidity), the plants are sprayed with an aqueous spray solution derived from the formulation of the “technical” (i.e. unformulated) active ingredient in acetone/water (50:50) solution containing 0.5% Tween 20 (polyoxyethylene sorbitan monolaurate, CAS Registry Number 9005-64-5). The test plants are then grown on under controlled conditions in a glasshouse (at 24/16° C., day/night; 14 hours light; 65% humidity) and watered twice daily. After 13 days for pre- or post-emergence, the test is evaluated visually, and an assessed percentage phytotoxicity score is given for each herbicidal application on each plant species (where 100%=total damage to plant; 0%=no damage to plant).
(§2) Lolium perenne (LOLPE), Alopecurus myosuroides (ALOMY), Echinochloa crus-galli (ECHCG), and Avena fatua (AVEFA); these are all grassy monocotyledonous weeds. Cool climate crop plant: Triticum aestivum (TRZAW, winter wheat).

Avena fatua (AVEFA) = assay: as above; conditions: 312 h, post-emergence (Example 1B Table 2), after 13 days, read-out: Percentage phytotoxicity AVEFA
Experimental: as §1, §2

[1] = tested on: Triticum aestivum (TRZAW, winter wheat); assay: as above; conditions: 312 h, post-emergence (Example 1B Table 2), after 13 days, crop plant, read-out: Percentage phytotoxicity TRZAW
Experimental: as §1, §2

[2] = tested on: Glycine max (GLXMA, soybean) cultivar Nikko; assay: Biological Example 3 glasshouse assay, post-emergence, various adjuvant systems; conditions: 120 g/ha, crop
Experimental: (§3) Post-emergence foliar spray application, 200 L/ha, usually one or two replicates for the weeds (depending on application rate), and two replicates for soybean.
(§4) Standard warm conditions (tropical), in glasshouse. Specifically, the glasshouse bay conditions are 24° C./18° C. day/night; 16/8 hours light/dark; 65% humidity.
(§5) The herbicidal application takes place at the following growth stages for plants which include inter alia one or more of the following plants (usually the herbicidal application takes place on at least the following plants: DIGSA, ELEIN, SETFA, ZEAMX, GLXMA Nikko, and GLXMA TMG133, and often also either BRADC or BRAPP):
Glycine max (GLXMA, soybean) cultivar “Nikko”—growth stage: 1st trifoliate
(§6) Each test compound is applied with one of the following adjuvant systems (all percentages are final concentrations in the aqueous spray mixture):
(§7) Adjuvant system 2: 0.5% v/v Hexamoll™ DINCH**, 1.0% v/v AMS (ammonium sulphate) and 12.5% v/v IPA (isopropyl alcohol).
(§8) Adjuvant system 3: 0.5% v/v tris-(2-ethylhexyl)phosphate (“TEHP”), 1.0% v/v AMS (ammonium sulphate) and 12.5% v/v IPA (isopropyl alcohol).
(§9) Seeds of the weed (including volunteer) plants, typically including inter alia Digitaria sanguinalis (DIGSA), Eleusine indica (ELEIN), Setaria faberi (SETFA), Zea mays (ZEAMX, corn), and sometimes also [either Brachiaria decumbens (BRADC) or Brachiaria platyphylla (BRAPP)], are sown in seed trays (troughs) containing clay loam soil (pH 7.0, 2.2% organic matter, “Trough Mix A”); and soybean seed is sown in pots containing the same soil with 3 soybean seedlings per pot. The plants are sprayed with the test herbicide when they reach the growth stages mentioned above.
(§10) The test herbicidal solutions are prepared by mixing the appropriate aliquots of the test substance(s) and one of the adjuvant systems indicated above *** in deionised water to give the desired treatment concentration.
(§11) The herbicidal application is made as a foliar spray, using a tracksprayer. Following the herbicidal application, the plants are watered twice per day for the duration of the test.
(§12) A visual assessment of the % herbicidal damage is made 7 and 14 Days After herbicide Application (DAA) (or, in a minority of cases, 7 and 15 DAA), and the results are recorded as % visual herbicidal damage where 0%=no damage to plants and 100%=plant totally killed.
(§13) Compounds A2 and A7 were tested using the 0.5% v/v Hexamoll™ DINCH™+1.0% v/v AMS+12.5% v/v IPA adjuvant system. Compounds A11, A12, A14, A20 and A21 were tested using the 0.5% v/v tris-(2-ethylhexyl)phosphate (“TEHP”)+1.0% v/v AMS+12.5% v/v IPA adjuvant system.
(§14) The percentages of herbicidal damage/plant control, at 14 Days After herbicide Application (DAA) (or, in some cases, at 15 DAA), for the Compounds tested and for some of the plants tested, were in the following percentage ranges. For the tested compounds, the phytotoxicity results shown herein are generally the average of 2 or 3 repetitions (for the grassy weeds including corn) or the average of 2 repetitions (for soybean for most of the tested compounds). However, for Compound A2 on soybean there was 1 repetion only.

Setaria faberi (SETFA) = assay: as above; conditions: 8 g/ha; for percentage control of Setaria faberi: adjuvant 0.5% v/v TEHP + 1.0% v/v AMS + 12.5% v/v IPA
Experimental: as §3, §4, §5
Setaria faberi (SETFA)—growth stage 12 or 13
as §6, §7, §8, §9, §10, §11, §12, §13, §14

[3] = tested on: Brachiaria decumbens (BRADC); assay: as above; conditions: 8 g/ha, 14 DAA
Experimental: as §3, §4, §5
Brachiaria decumbens (BRADC)—growth stage (GS) 12 or 13 (or GS 12)—or, if BRADC is not used, then sometimes Brachiaria platyphylla (BRAPP)—growth stage 12 or 13
as §6, §7, §8, §9, §10, §11, §12
Compounds A2 and A7 were tested using the 0.5% v/v Hexamoll™ DINCH™+1.0% v/v AMS+12.5% v/v IPA adjuvant system. Compounds A11, A12, A14, A20 and A21 were tested using the 0.5% v/v tris-(2-ethylhexyl)phosphate (“TEHP”)+1.0% v/v AMS+12.5% v/v IPA adjuvant system. […]

[4] = tested on: Glycine max (GLXMA, soybean) cultivar TMG133 (Roundup Ready glyphosate-tolerant); assay: as above; conditions: 120 g/ha, crop
Experimental: as §3, §4, §5
Glycine max (GLXMA, soybean) cultivar “TMG133”—which is Roundup Ready™ glyphosate-tolerant soybean cultivar TMG133 (typically available from Monsanto in Brazil)—growth stage: 1st trifoliate.
as §6, §7, §8, §9, §10, §11, §12, §13, §14
Glycine max (GLXMA, soybean) cultivar “TMG133” is Roundup Ready™ glyphosate-tolerant soybean cultivar TMG133, and is typically available from Monsanto in Brazil.

[5] = tested on: Digitaria sanguinalis (DIGSA); assay: as above; conditions: 8 g/ha; for percentage control of Digitaria sanguinalis: adjuvant 0.5% v/v TEHP + 1.0% v/v AMS + 12.5% v/v IPA
Experimental: as §3, §4, §5
Digitaria sanguinalis (DIGSA)—growth stage 12 or 13
as §6, §7, §8, §9, §10, §11, §12, §13, §14

[6] = 14 DAA, adjuvant 0.5% v/v Hexamoll DINCH + 1.0% v/v AMS + 12.5% v/v IPA
[7] = 14 DAA, adjuvant 0.5% v/v TEHP + 1.0% v/v AMS + 12.5% v/v IPA
[8] = 15 DAA, adjuvant 0.5% v/v TEHP + 1.0% v/v AMS + 12.5% v/v IPA
[9] = 14 or 15 DAA, adjuvant 0.5% v/v TEHP + 1.0% v/v AMS + 12.5% v/v IPA

Row | SMILES | pest or weed control at 62.5 g/ha (Lolium perenne (LOLPE)) | pest or weed control at 250 g/ha (Lolium perenne (LOLPE)) | pest or weed control at 62.5 g/ha (Avena fatua (AVEFA)) | pest or weed control at 250 g/ha (Avena fatua (AVEFA)) | plant injury at 62.5 g/ha [1] | plant injury at 250 g/ha [1] | other results
1 | C#CCC1CC(=O)C(c2c(C)cc(-c3ncc(Cl)cc3F)cc2C)C1=O (stereo not shown) [Compound A3] | 100% | 100% | 90% | 100% | 90% | 90% | 
2 | C#CCC1CC(=O)C(c2c(F)cc(-c3ccc(Cl)cc3)cc2Cl)C1=O (stereo not shown) [Compound A6, 2-[2-chloro-4-(4-chlorophenyl)-6-fluorophenyl]-4-prop-2-ynylcyclopentane-1,3-dione] |  | 80% |  | 90% |  | 80% | 
3 | C#CCC1CC(=O)C(c2c(Cl)cc(-c3ccc(F)cc3)cc2OC)C1=O (stereo not shown) [Compound A7] |  |  |  |  |  |  | percentage phytotoxicity on Glycine max cultivar Nikko [2, 6]: 2.5%; percentage control of (phytotoxicity on) Setaria faberi (SETFA) (Setaria faberi (SETFA); [6]): 91.7%; percentage control of (phytotoxicity on) Brachiaria decumbens (BRADC) ([3]; adjuvant 0.5% v/v Hexamoll DINCH + 1.0% v/v AMS + 12.5% v/v IPA): 95%; percentage phytotoxicity on Glycine max cultivar TMG133 [4, 6]: 0%; percentage control of (phytotoxicity on) Digitaria sanguinalis (DIGSA) [5, 6]: 95%
4 | C#CCC1CC(=O)C(c2c(F)cc(-c3ccc(Cl)cn3)cc2Cl)C1=O (stereo not shown) [Compound A8] | 70% | 100% | 90% | 100% | 80% | 80% | 
5 | C#CCC1CC(=O)C(c2c(Cl)cc(-c3ccc(Cl)cn3)cc2OC)C1=O (stereo not shown) [Compound A10] | 100% | 100% | 100% | 100% | 90% | 90% | 
6 | C#CCC1CC(=O)C(c2c(Cl)cc(-c3ccc(Cl)cc3)cc2OC)C1=O (stereo not shown) [Compound A11, 2-[2-chloro-4-(4-chlorophenyl)-6-methoxyphenyl]-4-prop-2-ynylcyclopentane-1,3-dione] |  |  |  |  |  |  | percentage phytotoxicity on Glycine max cultivar Nikko [2, 7]: 15%; percentage control of Setaria faberi (Setaria faberi (SETFA); 14 DAA): 98%; percentage control of Brachiaria decumbens (BRADC) ([3]; adjuvant 0.5% v/v TEHP + 1.0% v/v AMS + 12.5% v/v IPA): 99%; percentage phytotoxicity on Glycine max cultivar TMG133 [4, 7]: 12.5%; percentage control of Digitaria sanguinalis ([5]; 14 DAA): 99%
7 | C#CCC1CC(=O)C(c2c(Cl)cc(-c3ccc(F)c(F)c3)cc2OC)C1=O (stereo not shown) [Compound A13] | 90% | 100% | 100% | 100% | 80% | 80% | 
8 | C#CCC1CC(=O)C(c2c(F)cc(-c3ccc(Cl)cc3)cc2OC)C1=O (stereo not shown) [Compound A14] |  | 80% |  | 100% |  | 70% | percentage phytotoxicity on Glycine max cultivar Nikko [2, 8]: 5%; percentage control of Setaria faberi (Setaria faberi (SETFA); 15 DAA): 95%; percentage phytotoxicity on Glycine max cultivar TMG133 [4, 8]: 5%; percentage control of Digitaria sanguinalis ([5]; 15 DAA): 85%
9 | C#CCC1CC(=O)C(c2c(F)cc(-c3ccc(F)cc3)cc2OC)C1=O (stereo not shown) [Compound A20, 2-[2-fluoro-4-(4-fluorophenyl)-6-methoxyphenyl]-4-prop-2-ynylcyclopentane-1,3-dione] |  |  |  |  |  |  | percentage phytotoxicity on Glycine max cultivar Nikko [2, 9]: 2%; percentage control of Setaria faberi (Setaria faberi (SETFA); 14 or 15 DAA): 90%; percentage phytotoxicity on Glycine max cultivar TMG133 [4, 9]: 10%; percentage control of Digitaria sanguinalis ([5]; 14 or 15 DAA): 75%
10 | C#CCC1CC(=O)C(c2c(F)cc(-c3ccc(F)cc3F)cc2OC)C1=O (stereo not shown) [Compound A21] |  |  |  |  |  |  | percentage phytotoxicity on Glycine max cultivar Nikko [2, 9]: 5%; percentage control of Setaria faberi (Setaria faberi (SETFA); 14 or 15 DAA): 85%; percentage phytotoxicity on Glycine max cultivar TMG133 [4, 9]: 5%; percentage control of Digitaria sanguinalis ([5]; 14 or 15 DAA): 45%
11 | C#CCC1CC(=O)C(c2c(C)cc(C)cc2C)C1=O (stereo not shown) [Compound A23] | 90% | 100% | 90% | 90% | 50% | 70% | 
12 | C#CCC1CC(=O)C(c2c(CC)cc(C)cc2CC)C1=O (stereo not shown) [Compound A25, 2-(2,6-diethyl-4-methyl-phenyl)-4-(prop-2-ynyl)-cyclopentane-1,3-dione] | 100% | 100% | 100% | 100% | 30% | 60% | 
13 | C#CCC1C(=O)C(c2c(C)cc(C)cc2C)C(=O)C1CC#C (stereo not shown) [Compound A42] |  | 100% |  | 80% |  | 20% | 
